Data as given in patent US4536493A, “Saturated aminocyclitol derivatives, their preparation and medicaments containing these compounds” (Baker Aktiengesellschaft, priority 1981, dated 1985).

target: T1, saccharase from pig small intestinal mucosa (Sus scrofa, UniProt P56729); test: Saccharase inhibition test in vitro; assay type: biochemical; settings: solubilised saccharase 0.12 SU, sucrose substrate, 0.1 M sodium maleate buffer pH 6.0, 35° C.; 1 SIU = amount inhibiting two saccharase units by 50%
T1 construct: sucrase and isomaltase chains cleaved from one SI precursor
T1 sequence (P56729 with tags, fused parts or gaps): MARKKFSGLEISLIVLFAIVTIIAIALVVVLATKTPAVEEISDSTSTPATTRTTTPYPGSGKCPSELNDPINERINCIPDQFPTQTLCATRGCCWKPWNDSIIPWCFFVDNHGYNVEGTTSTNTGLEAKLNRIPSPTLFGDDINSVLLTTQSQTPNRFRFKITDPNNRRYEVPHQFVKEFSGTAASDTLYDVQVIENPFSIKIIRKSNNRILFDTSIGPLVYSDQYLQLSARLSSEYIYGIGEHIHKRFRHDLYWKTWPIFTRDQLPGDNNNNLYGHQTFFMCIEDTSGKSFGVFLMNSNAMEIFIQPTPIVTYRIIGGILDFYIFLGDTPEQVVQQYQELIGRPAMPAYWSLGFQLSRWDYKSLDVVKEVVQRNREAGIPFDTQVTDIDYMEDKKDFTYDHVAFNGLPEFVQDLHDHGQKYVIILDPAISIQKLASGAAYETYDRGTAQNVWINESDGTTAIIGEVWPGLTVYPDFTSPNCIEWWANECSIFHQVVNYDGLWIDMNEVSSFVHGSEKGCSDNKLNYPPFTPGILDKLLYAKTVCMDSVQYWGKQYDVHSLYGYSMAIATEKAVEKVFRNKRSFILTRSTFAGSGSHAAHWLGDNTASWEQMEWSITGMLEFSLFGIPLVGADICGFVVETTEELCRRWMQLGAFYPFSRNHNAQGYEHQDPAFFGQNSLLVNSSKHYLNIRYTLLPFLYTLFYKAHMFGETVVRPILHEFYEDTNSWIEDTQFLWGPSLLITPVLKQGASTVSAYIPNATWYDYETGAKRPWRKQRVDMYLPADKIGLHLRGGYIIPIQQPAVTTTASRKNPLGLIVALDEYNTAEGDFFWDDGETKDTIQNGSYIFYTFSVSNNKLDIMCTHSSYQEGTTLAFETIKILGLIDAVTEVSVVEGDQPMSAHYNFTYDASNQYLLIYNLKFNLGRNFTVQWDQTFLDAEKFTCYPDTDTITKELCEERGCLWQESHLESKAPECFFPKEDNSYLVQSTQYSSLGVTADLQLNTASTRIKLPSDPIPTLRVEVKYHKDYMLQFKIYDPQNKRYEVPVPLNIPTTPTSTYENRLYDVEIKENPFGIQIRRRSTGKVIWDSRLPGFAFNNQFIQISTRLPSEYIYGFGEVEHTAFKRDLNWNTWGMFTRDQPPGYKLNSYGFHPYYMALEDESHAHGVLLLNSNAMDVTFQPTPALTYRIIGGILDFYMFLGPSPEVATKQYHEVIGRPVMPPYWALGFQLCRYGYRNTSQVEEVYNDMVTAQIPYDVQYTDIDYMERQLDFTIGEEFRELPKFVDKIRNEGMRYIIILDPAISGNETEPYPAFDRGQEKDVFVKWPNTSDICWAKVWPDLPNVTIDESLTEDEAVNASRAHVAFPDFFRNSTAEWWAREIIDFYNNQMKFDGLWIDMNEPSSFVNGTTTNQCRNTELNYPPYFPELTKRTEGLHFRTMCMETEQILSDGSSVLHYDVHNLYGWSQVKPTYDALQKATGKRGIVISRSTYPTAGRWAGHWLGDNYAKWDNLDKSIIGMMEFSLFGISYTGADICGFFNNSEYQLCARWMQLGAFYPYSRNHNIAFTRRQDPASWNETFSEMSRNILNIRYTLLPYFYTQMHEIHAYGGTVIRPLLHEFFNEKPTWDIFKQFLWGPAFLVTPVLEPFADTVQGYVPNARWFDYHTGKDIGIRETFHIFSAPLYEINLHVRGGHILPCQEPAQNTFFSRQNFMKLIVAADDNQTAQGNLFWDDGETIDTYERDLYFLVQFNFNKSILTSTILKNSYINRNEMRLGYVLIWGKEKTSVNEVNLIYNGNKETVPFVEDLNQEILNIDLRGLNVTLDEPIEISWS
Protocol: A saccharase inhibitor unit (SIU) is defined as the amount of inhibitor which inhibits two saccharase units to the extent of 50%. A saccharase unit (SU) is the amount of enzyme which cleaves 1 μmol of sucrose into glucose and fructose in one minute under the test conditions given below. […] To perform the tests, 0.05 ml of a solution of saccharase^(1) which had been set at 0.12 SU was mixed with 0 to 20 μg of inhibitor or 0 to 20 μl of the solution for testing and made up with 0.1 M sodium maleate buffer of pH 6.0 or 0.1 ml. The mixture was equilibrated for 10 minutes at 35° C. and then mixed with 0.1 ml of a 0.05 M solution of sucrose in 0.1 M sodium maleate buffer of pH 6.0 pre-warmed to 35° C. After incubation for 20 minutes at 35° C., the saccharase reaction was stopped by addition of 1 ml of glucose oxidase reagent^(2), and incubation was continued for 30 minutes at 35° C. Thereafter 1 ml of 50% strength H2 SO4 was added and measured at 545 nm against an appropriate blank. For evaluation, the percentage inhibition of the saccharase employed is calculated and, with the aid of a glucose calibration curve, converted from the 50% inhibition point to SIU/g or SIU/liter. (1) Solubilised saccharase from pig small intestinal mucosa according to B. Borgstrom, A. Dahlquist, Acta Chem. Scand. 12, (1958), page 1997. Diluted with 0.1 M sodium maleate buffer of pH 6.0 to the appropriate SU content. (2) The glucose oxidase reagent is prepared by dissolving 2 mg of glucose oxidase (Boehringer No. 15423) in 100 ml of 0.565 M tris-HCl buffer of pH 7.0 and subsequently adding 1 ml of detergent solution (2 g of Triton X 100+8 g of 95% strength ethanol AR), 1 ml of dianisidine solution (260 mg of o-dianisidine 0.2 HCl in 20 ml of H2 O) and 0.5 ml of 0.1% strength aqueous peroxidase solution (Boehringer No. 15302).

Row | SMILES | Effectiveness in the saccharase inhibition test in vitro (saccharase inhibitor units per g)
1 | COC1O[C@H](C)[C@@H](N[C@H]2C=C(CO)[C@@H](O)[C@H](O)[C@H]2O)[C@H](O)[C@H]1O (stereo partly shown) | 38 850 SIU/g
2 | C[C@H]1O[C@H](O[C@H]2[C@H](O)[C@@H](O)[C@@H](O[C@H]3[C@H](O)[C@@H](O)C(O)O[C@@H]3CO)O[C@@H]2CO)[C@H](O)[C@@H](O)[C@@H]1N[C@H]1C[C@H](CO)[C@@H](O)[C@H](O)[C@H]1O (stereo partly shown) [Example 1] | 59 829 SIU/g
3 | COC1O[C@H](C)[C@@H](N[C@H]2C[C@H](CO)[C@@H](O)[C@H](O)[C@H]2O)[C@H](O)[C@H]1O (stereo partly shown) [Example 2] | 38 850 SIU/g
4 | C[C@H]1O[C@H](O[C@H]2[C@H](O)[C@@H](O)[C@@H](O[C@H]3[C@H](O)[C@@H](O)C(O)O[C@@H]3CO)O[C@@H]2CO)[C@H](O)[C@@H](O)[C@@H]1N[C@H]1C=C(CO)[C@@H](O)[C@H](O)[C@H]1O (stereo partly shown) [acarbose] | 77 700 SIU/g
